Two compounds from patent publication US12275721B2, “Indazole carboxamides as kinase inhibitors” (BRISTOL-MYERS SQUIBB COMPANY, priority 2019, dated 2025) can be followed below.

For this test, the system named is MLKL phosphorylation in HT29-L23 human colorectal adenocarcinoma cells. Briefly: MLKL Phosphorylation High-Content Assay. The conditions noted are these: Homo sapiens, necroptosis induced with TNFα, SMAC mimetic and Z-VAD, 6 h, read-out: pMLKL (IC50). It counts as cell-based. The procedure: MLKL Phosphorylation High-Content Assay
HT29-L23 human colorectal adenocarcinoma cells were maintained in RPMI 1640 medium containing 10% heat-inactivated FBS, 1% Penicillin-Streptomycin and 10 mM HEPES. Cells were seeded at 2,000 cells/well in 384 well tissue culture-treated microplates (Greiner #781090-3B) and incubated at 37° C. (5% CO2/95% O2) for 2 d. On the day of the assay, the cells were treated with test compounds at final concentrations of 6.25 to 0.106 μM for 30 min at 37° C. (5% CO2/95% O2). Necroptopsis was induced using a mixture of human TNFα (35 ng/mL) (Peprotech #300-01A), SMAC mimetic (from US 2015/0322111 A1) (700 nM) and Z-VAD (140 nM) (BD pharmingen #51-6936). Following 6 h incubation at 37° C. (5% CO2/95% O2), the cells were fixed with 4% formaldehyde (ACROS 11969-0010) for 15 min at rt, then permeabilized with phosphate buffered saline (PBS) containing 0.2% Triton-X-100 for 10 min. MLKL phosphorylation was detected using anti-MLKL (phospho S358) antibody (Abcam #ab187091) (1:1000 dilution in Blocking Buffer [PBS supplemented with 0.1% BSA]) with ON incubation at 4° C. After washing three times in PBS, goat anti-rabbit Alexa-488 (1:1000 dilution) (Life Technologies, A1 1008) and Hoechst 33342 (Life Technologies, H3570) (1:2000 dilution) in Blocking Buffer were added for 1 h at rt. Following another three cycles of washes in PBS, the microplates were sealed, and cellular images were acquired in the Cellomics ArrayScan VTI high-content imager equipped with an X1 camera. Fluorescent images were taken using a 10× objective and the 386-23 BGRFRN_BGRFRN and 485-20 BGRFRN_BGRFRN filter sets, for nuclei and MLKL phosphorylation, respectively. The image sets were analyzed using the Compartmental Analysis Bioapplication software (Cellomics). The level of MLKL phosphorylation was quantified as MEAN_CircRingAvglntenRatio. The maximal inhibitory response was defined by the activity induced by Necls (CAS #: 852391-15-2, 6.25 μm). The IC50 value was defined as the concentration of compound that produces 50% of the maximal inhibition. The data were fitted using the 4-parameter logistic equation to calculate the IC50 and Ymax values.

Each structure is given as a SMILES string.

Usually IC50 stands for the concentration at which inhibition is half-maximal. With `CC(C)NC(=O)c1n[nH]c2cc(-c3ccc(C(=O)NCC[C@H](O)c4ccc(Cl)cc4)s3)ccc12` [Example 9, (S)-6-(5-((3-(4-chlorophenyl)-3-hydroxypropyl)carbamoyl)thiophen-2-yl)-N-isopropyl-1H-indazole-3-carboxamide], the IC50 amounted to 500 nM.

As for `CNC(=O)c1n[nH]c2cc(-c3cc(C(=O)NC(C)CCc4ccccc4)n(C)n3)ccc12` (racemic) [Example 36, N-methyl-6-(1-methyl-5-((4-phenylbutan-2-yl)carbamoyl)-1H-pyrazol-3-yl)-1H-indazole-3-carboxamide], the 50% inhibitory concentration (IC50) worked out at 600 nM.
